One assay has as its system transglutaminase (TGase). The assay is described as follows: Measurement of TG (TGase inhibitory activity, monodansyl cadaverine / N,N-dimethylcasein fluorescence, FDSS 3000). In kind it is biochemical. The gist of the method: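 Compound (1 μL of 10 mM stock) added to 0.1 mL reaction: 100 mM HEPES-NaOH pH 7.5, 1 mM CaCl2, 20 μM monodansyl cadaverine, 0.05 mg/mL N,N-dimethylcasein, 5 μg/mL TGase. Rate of fluorescence change at 340 nm measured; DMSO control set to 100; TG50 is the concentration halving activity.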

Assay [1] concerns Truncated N-terminal huntington 150 Q-EGFP-Neuron 2a cells. Kind of assay: Measurement of x-Fold (polyglutamine aggregation inhibitory activity). In kind it is cell-based. The method, then: In the present invention, the polyglutamine aggregation inhibitory activity (x-Fold) can be measured, for example, by the method described in the Example.
The number of the aggregated cells, and the total number of cells were counted by Array Scan V T1 (manufactured by Cellomics, Pittuburg, USA), and the ratio of the aggregated cells to the total number of cells was determined (x-Fold). […]

Where [2] appears, read: TGase activity with compound (10 mM, 1 μL in 0.1 ml enzyme reaction solution), DMSO control taken as 100.
[3] abbreviates: TGase inhibitory activity measurement, unit not given.
[4] abbreviates: TGase inhibitory activity value, Table 1.
Where [5] appears, read: polyglutamine aggregation inhibitory activity, Table 1.
Setting [6] is: polyglutamine aggregation, Truncated N-terminal huntington 150 Q-EGFP-Neuron 2a cells.
Where [7] appears, read: ratio of aggregated cells to total number of cells, compound 20 μM, 20 hr, almost 1 without compound, smaller = stronger inhibition.

As to `NCCNCCOB(c1ccc(COCc2ccc(B(OCCNCCN)c3ccc(F)c(F)c3)cc2)cc1)c1ccc(F)c(F)c1` [Example 419, bis(4,4′-(3,4-difluorophenyl-N-aminoethylaminoethoxyboryl)benzyl)ether], the “TGase activity remaining (% of DMSO control = 100)” value in the assay with transglutaminase (TGase) (setting [2]) came out at 140; with transglutaminase (TGase) (setting [3]) it was 140; with transglutaminase (TGase) (setting [4]), 108. Further, the figures for the x-Fold in assay [1] (setting [5]), in assay [1] (setting [6]) and in assay [1] (setting [7]) were 1.02, 0.90 and 0.90, respectively.

On to `Cc1ccc(B(OCCN)c2ccc(B(OCCN)c3ccc(C)c(Cl)c3)cc2)cc1Cl` [Example 128, 1,4-bis(3-chloro-4-methylphenyl-2-aminoethoxyboryl)benzene], for which the “TGase activity remaining (% of DMSO control = 100)” value in the assay with transglutaminase (TGase) (setting [2]) and in the assay on transglutaminase (TGase) (setting [4]) was 143 throughout. Also, the x-Fold in assay [1] (setting [5]) and in assay [1] (setting [7]) was 0.93 in each case.

Turning to `CCCCC(N)C(=O)OB(c1ccc(C)c(Cl)c1)c1ccc(C)c(Cl)c1` (stereo not drawn) [Example 227, di(3-chloro-4-methylphenyl)(norloysinate-O,N)borane], the “TGase activity remaining (% of DMSO control = 100)” value came to 110 in the assay with transglutaminase (TGase) (setting [2]) and 110 in the assay on transglutaminase (TGase) (TGase inhibitory activity value, Table 1, listed as 4130). For the same molecule, the x-Fold in assay [1] (polyglutamine aggregation inhibitory activity, Table 1, listed as 4130) was determined as 0.99; in assay [1] (setting [7]), 0.99.

As for `NCCOB(c1ccsc1)c1ccc2sc3ccc(B(OCCN)c4ccsc4)cc3c2c1` [Example 485, 2,8-di(3-thiophenylaminoethoxyboryl)dibenzothiophene], the “TGase activity remaining (% of DMSO control = 100)” value in the assay with transglutaminase (TGase) (setting [2]) and with transglutaminase (TGase) (setting [3]) was 76 throughout. Moreover, the x-Fold in assay [1] (setting [6]) and in assay [1] (setting [7]) was 0.98 throughout.

Take `c1ccc(B(OB(c2ccccc2)c2ccccc2)c2ccccc2)cc1` [Example 217, diphenylborinic acid anhydride]: the “TGase activity remaining (% of DMSO control = 100)” value in the assay with transglutaminase (TGase) (setting [2]) and in the assay on transglutaminase (TGase) (setting [4]) was 118 each time. In addition, the x-Fold in assay [1] (setting [5]) and in assay [1] (setting [7]) was 0.94 each time.

Take `CCC(C)B(O)c1ccccc1` (stereo not drawn) [Example 107, secondary-butyl phenyl borinic acid]: the “TGase activity remaining (% of DMSO control = 100)” value in the assay with transglutaminase (TGase) (setting [2]) and with transglutaminase (TGase) (setting [4]) was 111 in each case. Besides, the x-Fold in assay [1] (setting [5]) and in assay [1] (setting [7]) was 0.98 each time.

On to `NCCCC(N)C(=O)OB(c1ccccc1)c1ccccc1` (stereo not drawn) [Example 245, diphenyl(ornithine-O,N)borane], for which the “TGase activity remaining (% of DMSO control = 100)” value in the assay on transglutaminase (TGase) (setting [2]) is given as 94; with transglutaminase (TGase) (TGase inhibitory activity value, Table 1, listed as 921), 94. Further, the x-Fold in assay [1] (polyglutamine aggregation inhibitory activity, Table 1, listed as 921) came to 0.91; in assay [1] (setting [7]) it was 0.91.

For the molecule “di(3-chloro-6-methyl-phenyl)(argininate-O,N)borane [Example 156]”, the “TGase activity remaining (% of DMSO control = 100)” value in the assay on transglutaminase (TGase) (setting [2]) and with transglutaminase (TGase) (setting [4]) was 91 throughout. Moreover, the x-Fold in assay [1] (setting [5]) and in assay [1] (setting [7]) was 1.08 in each case.

Consider `COc1ccc(B(O)c2cccc(COCc3cccc(B(O)c4ccc(OC)cc4)c3)c2)cc1` [Example 328, bis(3-(4-methoxyphenylhydroxyboryl)benzyl)ether], for which the “TGase activity remaining (% of DMSO control = 100)” value with transglutaminase (TGase) (setting [2]) is 100. The x-Fold in assay [1] (setting [7]) came to 1.04.

In the case of `OB(c1ccc(COCCOc2ccc(B(O)c3cccs3)cc2)cc1)c1cccs1` [Example 296, (4-(2-thiophenehydroxyboryl)phenoxyethyl)(4′-(2-thiophenehydroxyboryl)benzyl)ether], the “TGase activity remaining (% of DMSO control = 100)” value in the assay on transglutaminase (TGase) (setting [2]) and in the assay on transglutaminase (TGase) (setting [4]) was 97 throughout. Further, the x-Fold in assay [1] (setting [5]) and in assay [1] (setting [7]) was 0.74 throughout.

As for `NCCOB(c1ccc(COCc2ccc(B(OCCN)c3ccc(F)c(F)c3)cc2)cc1)c1ccc(F)c(F)c1` [Example 416, bis(4,4′-(3,4-difluorophenyl-aminoethoxyboryl)benzyl)ether], the “TGase activity remaining (% of DMSO control = 100)” value in the assay on transglutaminase (TGase) (setting [2]) and in the assay on transglutaminase (TGase) (setting [3]) was 114 each time. Also, the x-Fold in assay [1] (setting [6]) and in assay [1] (setting [7]) was 0.92 in each case.

For the molecule `NC(=O)CC(N)C(=O)OB(c1ccccc1)c1ccccc1` (stereo not drawn) [Example 136, diphenyl(asparaginate-O,N)borane], the “TGase activity remaining (% of DMSO control = 100)” value in the assay with transglutaminase (TGase) (setting [2]) was determined as 96; in the assay with transglutaminase (TGase) (TGase inhibitory activity value, Table 1, listed as 871) it was 96. In addition, the x-Fold in assay [1] (polyglutamine aggregation inhibitory activity, Table 1, listed as 871) amounted to 0.98; in assay [1] (setting [7]), 0.98.

On to `c1ccc(B(OCc2ccccn2)c2cccc3ccccc23)cc1` [Example 202, phenyl naphthyl 2-pyridylmethylborinate], for which the “TGase activity remaining (% of DMSO control = 100)” value in the assay on transglutaminase (TGase) (setting [2]) and in the assay on transglutaminase (TGase) (setting [4]) was 91 in each case. For the same molecule, the x-Fold in assay [1] (setting [5]) and in assay [1] (setting [7]) was 0.94 each time.

With `NCCOB(c1ccccc1)c1ccc2sc3ccc(B(OCCN)c4ccccc4)cc3c2c1` [Example 408, 2,8-di(phenylaminoethoxyboryl)dibenzothiophene], the “TGase activity remaining (% of DMSO control = 100)” value in the assay with transglutaminase (TGase) (setting [2]) and in the assay with transglutaminase (TGase) (setting [3]) was 108 throughout. Further, the x-Fold in assay [1] (setting [6]) and in assay [1] (setting [7]) was 0.92 in each case.

For the molecule `FC(F)(F)c1ccc(B(OCc2ccccn2)c2ccc(C(F)(F)F)cc2)cc1` [Example 155, di(trifluoromethylphenyl) 2-pyridinomethylborinate], the “TGase activity remaining (% of DMSO control = 100)” value with transglutaminase (TGase) (setting [2]) stood at 100. Also, the x-Fold in assay [1] (setting [7]) came out at 1.02.

For `CN(C)CCOB(c1ccc(Oc2ccc(B(OCCN(C)C)c3cccc4ccccc34)cc2)cc1)c1cccc2ccccc12` [Example 442, bis(4,4′-(naphthyldimethylaminoethoxyboryl)phenyl)ether], the “TGase activity remaining (% of DMSO control = 100)” value in the assay with transglutaminase (TGase) (setting [2]) and in the assay on transglutaminase (TGase) (setting [3]) was 102 throughout. The values for the x-Fold in assay [1] (setting [5]), in assay [1] (setting [6]) and in assay [1] (setting [7]) were 0.92, 0.58 and 0.58, respectively.

In the case of `Cc1cc(B(O)c2cccc(COCc3ccccc3B(O)c3ccc(Cl)c(C)c3)c2)ccc1Cl` [Example 344, (3-(4-chloro-3-methylphenylhydroxyboryl)benzyl)(2-(4-chloro-3-methylphenylhydroxyboryl)benzyl)ether], the “TGase activity remaining (% of DMSO control = 100)” value with transglutaminase (TGase) (setting [2]) and with transglutaminase (TGase) (setting [4]) was 91 in each case. Also, the x-Fold in assay [1] (setting [5]) and in assay [1] (setting [7]) was 0.93 in each case.

Turning to `OB(c1cccc(COCc2cccc(B(O)c3cccc4ccccc34)c2)c1)c1cccc2ccccc12` [Example 347, bis(3-(1′-naphthylhydroxyboryl)benzyl)ether], the “TGase activity remaining (% of DMSO control = 100)” value in the assay on transglutaminase (TGase) (setting [2]) is on record as 104. Further, in assay [1] (setting [7]), the x-Fold was 0.90.

`N#Cc1ccc(B(OCCNCc2ccccc2)c2ccc(C#N)cc2)cc1` [Example 105, benzylaminoethyl bis(4-cyanophenyl)borinate]: the “TGase activity remaining (% of DMSO control = 100)” value with transglutaminase (TGase) (setting [2]) and with transglutaminase (TGase) (setting [4]) was 92 throughout. Besides, the x-Fold in assay [1] (setting [5]) and in assay [1] (setting [7]) was 1.05 in each case.

Regarding `CCCNCCOB(c1ccc(C(F)(F)F)cc1)c1ccc(C(F)(F)F)cc1` [Example 188, di(trifluoromethylphenyl) 2-propylaminoethylborinate], the “TGase activity remaining (% of DMSO control = 100)” value with transglutaminase (TGase) (setting [2]) worked out at 91. Further, the x-Fold in assay [1] (setting [7]) turned out to be 0.98.

The values are drawn from patent US8853424B2 (Japan Science and Technology Agency, priority 2008, dated 2014).
